{"source": "patent US20100069366A1", "about": "“ANTIBACTERIAL QUINOLINE DERIVATIVES” (JANSSEN-CILAG, priority 2006, published 2010)", "assay_type_in_all_cases": "cell-based", "key": {"[1]": {"tested_on": "Pseudomonas aeruginosa (ATCC27853)", "experiment": "Microtitre plate assay, IC90 determination, PAE 27853", "conditions": "for IC90 (μg/ml) PAE 27853: Pseudomonas aeruginosa ATCC27853, 90% inhibitory concentration for bacterial growth, resazurin", "description": "(§1) The bacteria used in this study were grown overnight in flasks containing 100 ml Mueller-Hinton Broth (Becton Dickinson—cat. no. 275730) in sterile de-ionized water, with shaking, at 37° C. Stocks (0.5 ml/tube) were stored at −70° C. until use. Bacteria titrations were performed in microtiter plates to detect the TCID50, in which the TCID50 represents the dilution that gives rise to bacterial growth in 50% of inoculated cultures.\n(§2) In general, an inoculum level of approximately 100 TCID50 was used for susceptibility testing.\n(§3) Flat-bottom, sterile 96-well plastic microtiter plates were filled with 180 μl of sterile deionized water, supplemented with 0.25% BSA. Subsequently, stock solutions (7.8× final test concentration) of compounds were added in 45 μl volumes in column 2 Serial five-fold dilutions (45 μl in […]) were made directly in the microtiter plates from column 2 to reach column 11. Untreated control samples with (column 1) and without (column 12) inoculum were included in each microtiter plate. Depending on the bacteria type, approximately 10 to 60 CFU per well of bacteria inoculum (100 TCID50), in a volume of 100 μl in 2.8× Mueller-Hinton broth medium, was added to the rows A to H, except column 12. The same volume of broth medium without inoculum was added to column 12 in row A to H. The cultures were incubated at 37° C. for 24 hours under a normal atmosphere (incubator with open air valve and continuous ventilation). At the end of incubation, one day after inoculation, the bacterial growth was quantitated fluorometrically. Therefore resazurin (0.6 mg/ml) was added in a volume of 20 μl to all wells 3 hours after inoculation, and the plates were re-incubated overnight. A change in colour from blue to pink indicated the growth of bacteria. The fluorescence was read in a computer-controlled fluorometer (Cytofluor Biosearch) at an excitation wavelength of 530 nm and an emission wavelength of 590 nm. The % growth inhibition achieved by the compounds was calculated according to standard methods."}, "M. Smegmatis ATCC607": {"tested_on": "M. Smegmatis ATCC607", "experiment": "In-vitro anti-bacterial activity against strain M. smegmatis ATCC607", "conditions": "for IC90: Mycolicibacterium smegmatis", "description": "Flat-bottom, sterile 96-well plastic microtiter plates were filled with 180 μl of sterile deionized water, supplemented with 0.25% BSA. Subsequently, stock solutions (7.8× final test concentration) of compounds were added in 45 μl volumes to a series of duplicate wells in column 2 so as to allow evaluation of their effects on bacterial growth. Serial five-fold dilutions (45 μl in 180 μl) were made directly in the microtiter plates from column 2 to 11 using a customised robot system (Zymark Corp., Hopkinton, Mass.). Pipette tips were changed after every 3 dilutions to minimize pipetting errors with high hydrophobic compounds. Untreated control samples with (column 1) and without (column 12) inoculum were included in each microtiter plate. Approximately 250 CFU per well of bacteria inoculum, in a volume of 100 μl in 2.8× Mueller-Hinton broth medium, was added to the rows A to H, except column 12. The same volume of broth medium without inoculum was added to column 12 in row A to H. The cultures were incubated at 37° C. for 48 hours in a humidified 5% CO2 atmosphere (incubator with open air valve and continuous ventilation). At the end of incubation, two days after inoculation, the bacterial growth was quantitated fluorometrically. Therefore Alamar Blue (10×) was added to all wells in a volume of 20 μl and plates were incubated for another 2 hours at […]\nThe fluorescence was read in a computer-controlled fluorometer (Cytofluor, Biosearch) at an excitation wavelength of 530 nm and an emission wavelength of 590 nm (gain 30)."}, "[2]": {"tested_on": "Staphylococcus aureus (ATCC29213)", "experiment": "Microtitre plate assay, IC90 determination, STA 29213", "description": "as §1, §2, §3"}, "[3]": {"tested_on": "Enterococcus faecalis (ATCC29212)", "experiment": "Microtitre plate assay, IC90 determination, EFA 29212", "conditions": "Enterococcus faecalis ATCC29212; 90% inhibitory concentration for bacterial growth; resazurin", "description": "as §1, §2, §3"}, "[4]": {"tested_on": "Streptococcus pneumoniae (ATCC6305)", "experiment": "Microtitre plate assay, IC90 determination, SPN 6305", "conditions": "90% inhibitory concentration for bacterial growth, resazurin", "description": "as §1, §2, §3"}, "[5]": {"tested_on": "Streptococcus pyogens (ATCC8668)", "experiment": "Microtitre plate assay, IC90 determination, SPY 8668", "conditions": "for IC90 (μg/ml) SPY 8668: Streptococcus pyogens ATCC8668, 90% inhibitory concentration for bacterial growth, resazurin", "description": "as §1, §2, §3"}, "[6]": {"conditions": "90% inhibitory concentration for bacterial growth, 48 hours, Alamar Blue fluorescence"}, "[7]": {"conditions": "Staphylococcus aureus ATCC29213, 90% inhibitory concentration for bacterial growth, resazurin"}, "[8]": {"conditions": "Streptococcus pneumoniae ATCC6305"}, "[9]": {"conditions": "ATCC607, 48 h, read-out: M. smegmatis IC90 (μg/ml), 90% inhibitory concentration for bacterial growth, Alamar Blue fluorescence"}, "[10]": {"conditions": "Staphylococcus aureus, ATCC29213, read-out: IC90 (μg/ml) STA 29213"}, "[11]": {"conditions": "Streptococcus pneumoniae, ATCC6305, read-out: IC90 (μg/ml) SPN 6305, Streptococcus pneumoniae ATCC6305"}, "[12]": {"conditions": "ATCC607, 90% inhibitory concentration for bacterial growth, 48 hours, Alamar Blue fluorescence, read-out: M. smegmatis IC90"}, "[13]": {"conditions": "Staphylococcus aureus ATCC29213, 90% inhibitory concentration for bacterial growth, resazurin, read-out: IC90 (μg/ml) STA 29213"}, "[14]": {"conditions": "Streptococcus pneumoniae ATCC6305, read-out: IC90 (μg/ml) SPN 6305"}}, "note": "Read-outs that look alike come from different tables or passages of the source.", "data": [{"smiles": "COc1nc2ccc(Br)cc2cc1C(C(=CCN(C)C)c1cccc(F)c1)c1ccccc1", "note": "(racemic) [Compound 25]", "values": [{"measurement": "IC90 (μg/ml) PAE 27853", "setting": "[1]", "value": 40.15, "unit": "µg/mL"}, {"measurement": "M. smegmatis IC90", "setting": "M. Smegmatis ATCC607; [6]", "value": 40.15, "unit": "µg/mL"}, {"measurement": "IC90 (μg/ml) STA 29213", "setting": "[2]; [7]", "value": 22.58, "unit": "µg/mL"}, {"measurement": "IC90 (μg/ml) EFA 29212", "setting": "[3]", "value": 40.15, "unit": "µg/mL"}, {"measurement": "IC90 (μg/ml) SPN 6305", "setting": "[4]; [8]", "value": 8.01, "unit": "µg/mL"}, {"measurement": "IC90 (μg/ml) SPY 8668", "setting": "[5]", "value": 17.93, "unit": "µg/mL"}]}, {"smiles": "COc1nc2ccc(Br)cc2cc1C(=C(C)CCN(C)C)c1ccccc1", "note": "(mixture of isomers) [Compound 35]", "values": [{"measurement": "IC90 (μg/ml) PAE 27853", "setting": "[1]", "value": 15.09, "unit": "µg/mL"}, {"measurement": "M. smegmatis IC90", "setting": "M. Smegmatis ATCC607; [6]", "value": 3.79, "unit": "µg/mL"}, {"measurement": "IC90 (μg/ml) STA 29213", "setting": "[2]; [7]", "value": 33.79, "unit": "µg/mL"}, {"measurement": "IC90 (μg/ml) EFA 29212", "setting": "[3]", "value": 15.09, "unit": "µg/mL"}, {"measurement": "IC90 (μg/ml) SPN 6305", "setting": "[4]; [8]", "value": 1.35, "unit": "µg/mL"}, {"measurement": "IC90 (μg/ml) SPY 8668", "setting": "[5]", "value": 1.35, "unit": "µg/mL"}]}, {"smiles": "COc1nc2ccc(Br)cc2cc1C(/C(=C/C[N+](C)(C)C)c1cccc(F)c1)c1ccccc1", "note": "(centres unmarked) [Compound 23]", "values": [{"measurement": "IC90", "setting": "[1]; Pseudomonas aeruginosa, ATCC27853, read-out: IC90 (μg/ml) PAE 27853", "value": 6.55, "unit": "µg/mL"}, {"measurement": "IC90", "setting": "M. Smegmatis ATCC607; [9]", "value": 1.85, "unit": "µg/mL"}, {"measurement": "IC90", "setting": "[2]; [10]", "value": 1.65, "unit": "µg/mL"}, {"measurement": "IC90", "setting": "[4]; [11]", "value": 1.85, "unit": "µg/mL"}, {"measurement": "IC90", "setting": "[5]; Streptococcus, ATCC8668, read-out: IC90 (μg/ml) SPY 8668", "value": 1.65, "unit": "µg/mL"}]}, {"smiles": "COc1nc2ccc(-c3cc4ccccc4s3)cc2cc1C(C(=CCN(C)C)c1cccc(F)c1)c1ccccc1", "note": "(racemic) [Compound 33]", "values": [{"measurement": "M. smegmatis IC90", "setting": "M. Smegmatis ATCC607; [6]", "value": 7.03, "unit": "µg/mL"}, {"measurement": "IC90 (μg/ml) STA 29213", "setting": "[2]; [7]", "value": 8.86, "unit": "µg/mL"}, {"measurement": "IC90 (μg/ml) SPN 6305", "setting": "[4]; [8]", "value": 7.89, "unit": "µg/mL"}]}, {"smiles": "COc1nc2ccc(Br)cc2cc1/C(=C(/CCN(C)C)c1ccsc1)c1ccccc1", "note": "[Compound 18]", "values": [{"measurement": "IC90", "setting": "M. Smegmatis ATCC607; [12]", "value": 9.85, "unit": "µg/mL"}, {"measurement": "IC90", "setting": "[2]; [13]", "value": 17.5, "unit": "µg/mL"}, {"measurement": "IC90", "setting": "[4]; [14]", "value": 8.78, "unit": "µg/mL"}]}, {"smiles": "COc1nc2ccc(Br)cc2cc1/C(=C(\\C)CCN(C)C)c1ccccc1", "note": "[Compound 15]", "values": [{"measurement": "IC90", "setting": "M. Smegmatis ATCC607; [12]", "value": 1.35, "unit": "µg/mL"}, {"measurement": "IC90", "setting": "[2]; [13]", "value": 33.8, "unit": "µg/mL"}, {"measurement": "IC90", "setting": "[4]; [14]", "value": 6.74, "unit": "µg/mL"}]}, {"smiles": "c1ccc(/C(CCCCN2CCCCC2)=C(/c2ccccc2)c2cnc3ccccc3c2)cc1", "note": "[Compound 49]", "values": [{"measurement": "IC90", "setting": "M. Smegmatis ATCC607; [9]", "value": 7.08, "unit": "µg/mL"}, {"measurement": "IC90", "setting": "[2]; [10]", "value": 44.7, "unit": "µg/mL"}, {"measurement": "IC90", "setting": "[4]; [11]", "value": 8.91, "unit": "µg/mL"}]}, {"smiles": "COc1ccc(/C(CCCCN2CCCCC2)=C(/c2ccccc2)c2cnc3ccccc3c2)cc1", "note": "[Compound 51]", "values": [{"measurement": "IC90", "setting": "M. Smegmatis ATCC607; [12]", "value": 7.55, "unit": "µg/mL"}, {"measurement": "IC90", "setting": "[2]; [13]", "value": 47.7, "unit": "µg/mL"}, {"measurement": "IC90", "setting": "[4]; [14]", "value": 21.3, "unit": "µg/mL"}]}, {"smiles": "COc1nc2ccc(F)cc2cc1C(=C(CCN(C)C)c1ccccc1)c1ccccc1", "note": "(single isomer, unassigned) [Compound 39]", "values": [{"measurement": "M. smegmatis IC90", "setting": "M. Smegmatis ATCC607; [6]", "value": 16.98, "unit": "µg/mL"}, {"measurement": "IC90 (μg/ml) STA 29213", "setting": "[2]; [7]", "value": 33.88, "unit": "µg/mL"}, {"measurement": "IC90 (μg/ml) SPN 6305", "setting": "[4]; [8]", "value": 8.51, "unit": "µg/mL"}]}, {"smiles": "COc1nc2ccc(Br)cc2cc1C(/C(=C\\CN(C)C)c1ccsc1)c1ccccc1", "note": "(centres unmarked) [Compound 16]", "values": [{"measurement": "IC90", "setting": "M. Smegmatis ATCC607; [12]", "value": 1.75, "unit": "µg/mL"}, {"measurement": "IC90", "setting": "[2]; [13]", "value": 7.82, "unit": "µg/mL"}, {"measurement": "IC90", "setting": "[4]; [14]", "value": 1.56, "unit": "µg/mL"}]}]}
